Experiments:
PLC5 xenograft tumor = PLC5 xenograft tumor growth in nude mice; format: in vivo
Experimental: Male NCr athymic nude mice (5-7 weeks of age) were obtained from the National Laboratory Animal Center (Taipei, Taiwan). All experimental procedures using these mice were performed in accordance with protocols approved by the Institutional Laboratory Animal Care and Use Committee of National Taiwan University. Each mouse was inoculated subcutaneously in the dorsal flank with 1×10^6 PLC5 or A549 cells suspended in serum-free medium containing 50% Matrigel (BD Biosciences, Bedford, Mass., USA). When tumors reached 100-150 mm^3, mice were treated with sorafenib, the erlotinib derivatives of the present invention, or vehicle (control) at 10 mg/kg/day daily by oral gavage for 4 weeks.
The present invention used a PLC5 xenograft mouse model to assess the effects of TD-52 in vivo. The present choose sorafenib as one of the comparative treatment arms. Tumor-bearing mice were administered sorafenib (10 mg/kg), TD-52 (10 mg/kg) or DMSO (vehicle, as control). […] The present invention further examined the xenografted tumors taken from mice receiving TD-52 and vehicle to confirm the molecular events in the tumor tissue. […] When PP2A activity was enhanced by TD-52, Akt was dephosphorylated, promoting HCC cell apoptosis.

[1] = system: HCC cells (HA22T, Hep3B, PLC5, Sk-Hep1); assay: annexin-V/PI double-staining assay of apoptotic and necrotic cell death; format: cell-based; settings: 2 μM or higher doses, 48 h, four HCC cell lines
Experimental: The numbers of apoptotic cells after treatment with DMSO, sorafenib or the erlotinib derivatives of the present invention were assessed by flow cytometry (sub-G1). Annexin-V/propidium iodidie (PI) double-staining assay was used to determine numbers of both apoptotic and necrotic cells. For above tow assays, HCC cells were harvested after the erlotinib derivatives of the present invention treatment and incubated with PI alone for sub-G1 assay and in combination with annexin-V—FITC. Analysis of cell composition was performed by flow cytometry. The erlotinib derivatives of the present invention-induced apoptotic cell death was assessed by western blot analysis of activated caspases and cleaved PARP, and cell death enzyme-linked immunosorbent assay (ELISA) for cytoplasmic histone-associated DNA fragments (Roche, Indianapolis, Ind., USA). The effect of co-treatment with the erlotinib derivatives of the present invention and z-VAD-fmk, the caspase inhibitor, were assessed by western blot analysis and flow cytometry.
To better characterize the antitumor properties of TD-52, annexin-V/propidium iodide (PI) double-staining assay, western blot analysis, cell cycle analysis and DNA fragmentation assay were performed (FIGS. 1C-1E). At dose increase, the proportion of apoptosis and necrosis of cancer cell ware analyzed by annexin-V—FITC/PI double-staining assay. […]

PP2A = PP2A phosphatase activity (malachite green-phosphate assay in cell lysate); format: cell-based
PLC5 = assay: MTT cell viability, PLC5; format: cell-based; settings: 48 h
Experimental: The Sk-Hep1, PLC/PRF/5 (PLC) and Hep3B cell lines were obtained from American Type Culture Collection (ATCC; Manassas, Va., USA). The Huh-7 HCC cell line was obtained from the Health Science Research Resources Bank (HSRRB; Osaka, Japan; JCRB0403). Cells were maintained in DMEM supplemented with 10% FBS in a 37° C. humidified incubator in an atmosphere of 5% CO^2 in air. Other cell lines, including non-small cell lung cancer cells e.g. H358, H460 and A549 and human squamous cell carcinoma cells e.g. NCI-1703, H2170, H520, SW900 and NCI—H226 all obtained from American Type Culture Collection (Manassas, Va.) were also provided for the assays describes below.
The present invention compared the antitumor activities of an erlotinib derivative of the present invention, TD-52, and erlotinib on HCC cells. The present invention used MTT assay to evaluate cell viability after exposure to TD-52 or erlotinib for 48 h. […] To further evaluate the cell apoptosis induced by the treatments, all four cell lines were treated with TD-52 and erlotinib at the indicated concentration for 24 h and the percentages of sub-G1 cells were determined by flow cytometry (FIG. 1B).

CIP2A, p-Akt = assay: western blot of CIP2A and p-Akt in HCC cells; format: cell-based; settings: dose- and time-dependent
Experimental: Bar, mean; error bars, S.D. (n=3). […] Bar, mean; error bars, S.D. (n=3). […] Bar, mean; error bars, S.D. (n=3). […] Bar, mean; error bars, S.D. (n=3). […] Bar, mean; error bars, S.D. (n=3)
Cells were treated with […] for a time period. Cell lysates were analyzed by western blot analysis.
The present invention next investigated the molecular mechanism associated with TD-52, with particular focus on the cancerous inhibitor of protein phosphatase 2A (CIP2A)-protein phosphatase 2A (PP2A)-p-Akt signaling pathway. […] Furthermore, PP2A activity was enhanced after HCC cells treated with […]-52 for 24 hr (FIG. 2C), while the expression level of PP2A-related subunits, PP2A-A, PP2A-B5 and PP2A-C subunits, were not affected.

C#Cc1cccc(Nc2nc3ccccc3nc2Nc2cccc(C#C)c2)c1 [TD52, N^2,N^3-bis(3-ethynylphenyl)quinoxaline-2,3-diamine]
inhibition of in vivo tumor growth in comparison with sorafenib (PLC5 xenograft tumor; 10 mg/kg each, P<0.05): more potent inhibition of in vivo tumor growth | tumor size (PLC5 xenograft tumor; 10 mg/kg, oral gavage daily, 4 weeks, vs control arm): smaller than those of the control arm | PP2A activity in xenograft tumor samples (PLC5 xenograft tumor; TD-52 vs vehicle): enhanced PP2A activity | extents of cancer cell death, included apoptotic and necrotic death [1]: ≥ 50% | minimal concentration for PP2A activation (PP2A): 100 to 200 nM | PP2A activity in HCC cells (PP2A; 1 μL (printed) TD-52, 24 hr): enhanced | IC50 (PLC5): 0.8 µM | protein expression of CIP2A and p-Akt (CIP2A, p-Akt): downregulated
